Experiments:
[1] = test system: Candida albicans PCA6; test: agar diffusion test, growth inhibition zones; format: cell-based
[2] = test system: Candida albicans 1; test: agar diffusion test, growth inhibition zones; format: cell-based
[3] = acute toxicity (LD50) in mice; conditions: mouse, in vivo, iv; CD1 mice
Text: The nitrofurylbenzimidazoles (I) prepared via the process of the present invention are suitable for being compounded into topically administrable ointments and creams. […] Examples of typical formulations (suited for both topical application and systemic administration) are illustrated in the above-mentioned UK patents 1,072;735 and 1,094,903.

[4] = test system: Bacillus subtilis ATCC 6051; test: agar diffusion test, growth inhibition zones; format: cell-based
[5] = test system: Escherichia coli ATCC 10538; test: agar diffusion test, growth inhibition zones; format: cell-based
[6] = test system: Aspergillus Niger; test: agar diffusion test, growth inhibition zones; format: cell-based
[7] = test system: Staphylococcus epidermis ATCC 14990; test: agar diffusion test, growth inhibition zones; format: cell-based
[8] = test system: Sarcina lutea ATCC 9341; test: agar diffusion test, growth inhibition zones; format: cell-based
[9] = test system: Mycobacterium aurum NCTC 10437; test: agar diffusion test, growth inhibition zones
Method: The antitubercular activity was evaluated in in vitro tests against Mycobacterium aurum.

[10] = test system: Staphylococcus aureus ATCC 9144; test: agar diffusion test, growth inhibition zones; format: cell-based
[11] = test system: Candida parapsilosis; test: agar diffusion test, growth inhibition zones; format: cell-based
[12] = test system: Rodutorula rubra; test: agar diffusion test, growth inhibition zones; format: cell-based
[13] = test system: Candida tropicalis; test: agar diffusion test, growth inhibition zones; format: cell-based
[14] = test system: Torulopsis Candida; test: agar diffusion test, growth inhibition zones; format: cell-based
[15] = test system: Cryptococcus neoformans; test: agar diffusion test, growth inhibition zones; format: cell-based
[16] = test system: Cryptococcus albidus; test: agar diffusion test, growth inhibition zones; format: cell-based
[17] = test system: Aspergillus fumigatus; test: agar diffusion test, growth inhibition zones; format: cell-based
[18] = test system: Salmonella tiphymurium ATCC 13311; test: agar diffusion test, growth inhibition zones; format: cell-based
[19] = test system: Candida albicans 2; test: agar diffusion test, growth inhibition zones; format: cell-based
[20] = test system: Streptococcus faecalis ATCC 8043; test: agar diffusion test, growth inhibition zones; format: cell-based
[21] = test system: Aspergillus Flavus; test: agar diffusion test, growth inhibition zones; format: cell-based
[22] = test system: Enterobacter aerogenes ATCC 13047; test: agar diffusion test, growth inhibition zones; format: cell-based

## O=[N+]([O-])c1ccc(-c2nc3cc(F)ccc3[nH]2)o1 [Es. 3, 5-fluoro-2-(5'-nitro-2'-furyl)-benzimidazole]
[1]
  Growth inhibition zones: 34 mm
[2]
  Growth inhibition zones: 34 mm
[3]
  LD50: 240 mg/kg
[4]
  Growth inhibition zones: 27 mm
[5]
  Growth inhibition zones: 21 mm
[6]
  Growth inhibition zones: 38 mm
[7]
  Growth inhibition zones: 29 mm
[8]
  Growth inhibition zones: 27 mm
[9]
  Growth inhibition zones: 35 mm
[10]
  Growth inhibition zones: 28 mm
[11]
  Growth inhibition zones: 34 mm
[12]
  Growth inhibition zones: 35 mm
[13]
  Growth inhibition zones: 25 mm
[14]
  Growth inhibition zones: 42 mm
[15]
  Growth inhibition zones: 45 mm
[16]
  Growth inhibition zones: 35 mm
[17]
  Growth inhibition zones: 30 mm
[18]
  Growth inhibition zones: 23 mm
[19]
  Growth inhibition zones: 34 mm
[20]
  Growth inhibition zones: 33 mm
[21]
  Growth inhibition zones: 30 mm

## O=[N+]([O-])c1ccc(-c2nc3ccccc3[nH]2)o1 [Es. 1, 2-(5'-nitro-2'-furyl)-benzimidazole]
[1]
  Growth inhibition zones: 40 mm
[2]
  Growth inhibition zones: 25 mm
[4]
  Growth inhibition zones: 36 mm
[5]
  Growth inhibition zones: 22 mm
[7]
  Growth inhibition zones: 35 mm
[8]
  Growth inhibition zones: 15 mm
[9]
  Growth inhibition zones: 24 mm
[10]
  Growth inhibition zones: 35 mm
[11]
  Growth inhibition zones: 37 mm
[16]
  Growth inhibition zones: 33 mm
[17]
  Growth inhibition zones: 22 mm
[18]
  Growth inhibition zones: 20 mm
[19]
  Growth inhibition zones: 42 mm
[20]
  Growth inhibition zones: 24 mm
[22]
  Growth inhibition zones: 18 mm

## Cc1ccc2[nH]c(-c3ccc([N+](=O)[O-])o3)nc2c1 [Es. 2, 5-methyl-2-(5'-nitro-2'-furyl)-benzimidazole]
[1]
  Growth inhibition zones: 32 mm
[2]
  Growth inhibition zones: 18 mm
[4]
  Growth inhibition zones: 30 mm
[5]
  Growth inhibition zones: 13 mm
[7]
  Growth inhibition zones: 32 mm
[8]
  Growth inhibition zones: 12 mm
[9]
  Growth inhibition zones: 13 mm
[10]
  Growth inhibition zones: 30 mm
[11]
  Growth inhibition zones: 29 mm
[16]
  Growth inhibition zones: 25 mm
[17]
  Growth inhibition zones: 13 mm
[18]
  Growth inhibition zones: 12 mm
[19]
  Growth inhibition zones: 33 mm
[20]
  Growth inhibition zones: 23 mm
[22]
  Growth inhibition zones: 16 mm

## O=[N+]([O-])c1ccc(-c2nc3cc(C(F)(F)F)ccc3[nH]2)o1 [Es. 5, 5-trifluoromethyl-2-(5'-nitro-2'-furyl)-benzimidazole]
[1]
  Growth inhibition zones: 23 mm
[4]
  Growth inhibition zones: 26 mm
[5]
  Growth inhibition zones: 11 mm
[7]
  Growth inhibition zones: 30 mm
[8]
  Growth inhibition zones: 14 mm
[9]
  Growth inhibition zones: 22 mm
[10]
  Growth inhibition zones: 30 mm
[11]
  Growth inhibition zones: 20 mm
[18]
  Growth inhibition zones: 13 mm
[19]
  Growth inhibition zones: 22 mm
[20]
  Growth inhibition zones: 21 mm

## O=[N+]([O-])c1ccc(-c2nc3cc(Cl)ccc3[nH]2)o1 [Es. 6, 5-chloro-2-(5'-nitro-2'-furyl)-benzimidazole]
[1]
  Growth inhibition zones: 22 mm
[2]
  Growth inhibition zones: 15 mm
[4]
  Growth inhibition zones: 23 mm
[5]
  Growth inhibition zones: 15 mm
[7]
  Growth inhibition zones: 30 mm
[9]
  Growth inhibition zones: 13 mm
[10]
  Growth inhibition zones: 28 mm
[11]
  Growth inhibition zones: 21 mm
[18]
  Growth inhibition zones: 14 mm
[19]
  Growth inhibition zones: 22 mm
[20]
  Growth inhibition zones: 22 mm
[22]
  Growth inhibition zones: 12 mm

## O=[N+]([O-])c1ccc2[nH]c(-c3ccc([N+](=O)[O-])o3)nc2c1 [Es. 4, 5-nitro-2-(5'-nitro-2'-furyl)-benzimidazole]
[4]
  Growth inhibition zones: 30 mm
[5]
  Growth inhibition zones: 15 mm
[7]
  Growth inhibition zones: 32 mm
[8]
  Growth inhibition zones: 12 mm
[9]
  Growth inhibition zones: 15 mm
[10]
  Growth inhibition zones: 30 mm
[18]
  Growth inhibition zones: 15 mm
[20]
  Growth inhibition zones: 20 mm
[22]
  Growth inhibition zones: 14 mm
